Measurements taken from patent publication US10239835B2, “N-alkylaryl-5-oxyaryl-octahydro-cyclopenta[c]pyrrole negative allosteric modulators of NR2B” (Luc Therapeutics, Inc., priority 2014, dated 2019).

What was measured:
[1] = target: HEK293 cells expressing NR1/NR2B (Homo sapiens (Human), UniProt Q13224); test: NR2B NAM Assay (FDSS Ca2+ influx cell assay); format: cell-based; conditions: Ca2+ influx inhibition relative to MK801; 3 μM glutamate, 3 μM glycine, 1 mM Ca2+; read-out: NR2B NAM IC50
Experimental: (§1) Cell Culture and plating: HEK293 cells expressing NR1/NR2B (Chantest, Cleveland, Ohio) were grown to 70-80% confluency as an adherent monolayer in standard tissue culture flasks at 37° C., 5% CO2 per supplier's instructions. NR2B expression was induced by incubation with 0.3-0.4 μg/ml tetracycline in the presence of 4 mM ARL-15896 for 18-24 hours under the same growth conditions, then transferred to 30° C. for another 3-5 hours.
(§2) After induction, cell culture medium was removed and cells were rinsed once with Ca^2+ and Mg^2+-free Dulbecco's phosphate buffered saline. Cells were then removed from the flask using TrypLE™ Express (Life Technologies) according to the manufacturer's instructions and collected to 50 ml centrifuge tubes. Following two washes in Ca^2+/Mg^2+-free HBSS with 20 mM HEPES (HHnoCa), cells were counted and viability assessed using trypan blue. To load cells with Ca^2+-sensitive dye, they were resuspended in fluo-8 plus Component B (AAT Bioquest Products) diluted in HHnoCa and incubated 15 minutes at 37° C., followed by 30 minutes at room temp (in dark). Cells were then washed and resuspended in HHnoCa to remove extracellular dye and plated in 384-well plates (Falcon, uncoated) at 20,000-30,000 cells/well in a final volume of 25 μl/well.
(§3) FDSS Assay: To each well of the plate, 10 μL test compound, control (MK801) or HHnoCa buffer was added at different concentrations to yield final concentrations of 0.001, 0.003, 0.010, 0.030, 0.100, 0.300, 1.000, 3.000, 10.000, or 30.000 uM final concentration of DMSO of 0.1%. Following 10 minutes pre-incubation in the dark, plates are loaded onto the Hamamatsu FDSS 6000. After collecting baseline fluorescence images, 3 μM glutamate, 3 μM glycine, and 1 mM Ca^2+ in HHnoCa buffer is added to each well, and Ca^2+ is recorded for 3 minutes. Data were processed by computing ratio of fluorescence at the end of data collection to baseline fluorescence to assess degree of Ca^2+ influx inhibition relative to that observed in MK801.
(§4) Table 8 below provides activity of each compound according to the legend that “++++” indicates inhibition at a concentration<100 nM; “+++” indicates inhibition at a concentration between 100 nM and 1 μM of the disclosed compound; “++” indicates inhibition at a concentration of from 1 μM to 10 μM; and “+” indicates inhibition at a concentration>10 μM.

[2] = target: HEK293 cells expressing NR1/NR2B (Homo sapiens (Human), UniProt Q05586+Q13224); test: NR2B NAM Assay (FDSS Ca2+ influx cell assay); format: cell-based; conditions: NR2B NAM assay, class of inhibitory concentration; read-out: Activity Category
Experimental: as §1, §2, §3, §4

Chain of HEK293 cells expressing NR1/NR2B (Homo sapiens (Human), UniProt Q05586+Q13224) (Q13224 27-1484, other chains not shown): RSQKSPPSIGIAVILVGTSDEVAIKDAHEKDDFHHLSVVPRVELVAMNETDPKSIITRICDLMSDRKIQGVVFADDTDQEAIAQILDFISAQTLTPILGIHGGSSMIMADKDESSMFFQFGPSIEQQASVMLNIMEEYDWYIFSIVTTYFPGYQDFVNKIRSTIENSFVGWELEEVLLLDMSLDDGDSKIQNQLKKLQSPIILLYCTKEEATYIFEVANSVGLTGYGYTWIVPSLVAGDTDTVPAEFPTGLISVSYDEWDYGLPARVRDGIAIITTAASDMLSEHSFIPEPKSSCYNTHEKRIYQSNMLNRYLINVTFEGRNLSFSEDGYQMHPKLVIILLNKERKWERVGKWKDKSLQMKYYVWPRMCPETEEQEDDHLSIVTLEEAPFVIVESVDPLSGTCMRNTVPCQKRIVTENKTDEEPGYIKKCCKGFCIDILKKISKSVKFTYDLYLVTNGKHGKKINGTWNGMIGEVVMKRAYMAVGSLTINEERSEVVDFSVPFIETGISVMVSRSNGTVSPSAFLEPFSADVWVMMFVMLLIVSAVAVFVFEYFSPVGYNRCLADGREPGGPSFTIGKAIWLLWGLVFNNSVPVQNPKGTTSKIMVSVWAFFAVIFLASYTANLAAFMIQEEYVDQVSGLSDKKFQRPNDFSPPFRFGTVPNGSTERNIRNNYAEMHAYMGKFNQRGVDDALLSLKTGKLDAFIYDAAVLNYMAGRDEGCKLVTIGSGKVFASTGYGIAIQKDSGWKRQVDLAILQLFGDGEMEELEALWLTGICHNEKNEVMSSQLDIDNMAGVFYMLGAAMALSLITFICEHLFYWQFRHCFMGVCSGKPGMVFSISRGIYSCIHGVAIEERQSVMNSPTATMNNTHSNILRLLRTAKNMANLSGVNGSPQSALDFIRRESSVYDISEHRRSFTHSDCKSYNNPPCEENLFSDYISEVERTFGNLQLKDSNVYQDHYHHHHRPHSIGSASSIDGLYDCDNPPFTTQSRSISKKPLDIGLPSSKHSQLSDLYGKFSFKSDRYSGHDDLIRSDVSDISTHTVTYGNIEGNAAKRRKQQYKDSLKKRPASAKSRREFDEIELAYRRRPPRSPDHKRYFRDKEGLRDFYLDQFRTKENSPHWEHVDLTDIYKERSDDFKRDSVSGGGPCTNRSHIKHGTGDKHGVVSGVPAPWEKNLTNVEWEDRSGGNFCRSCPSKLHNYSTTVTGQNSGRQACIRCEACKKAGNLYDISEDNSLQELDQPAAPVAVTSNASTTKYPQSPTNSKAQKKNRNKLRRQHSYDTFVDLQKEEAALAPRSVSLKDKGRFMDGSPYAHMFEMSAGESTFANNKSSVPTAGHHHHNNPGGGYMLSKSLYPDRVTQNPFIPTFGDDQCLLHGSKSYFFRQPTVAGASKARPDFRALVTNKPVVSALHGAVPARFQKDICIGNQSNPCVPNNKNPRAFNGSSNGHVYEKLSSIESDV
Chain of HEK293 cells expressing NR1/NR2B (Homo sapiens (Human), UniProt Q13224) (Q13224 27-1484, other chains not shown): as above

Compound	IC50 [1]	IC50 [2]
N#Cc1ccc(O[C@H]2C[C@@H]3CN(CC(O)c4ccc(O)c(F)n4)C[C@@H]3C2)cc1 (some centres unmarked)	0.367 µM	0.1 to 1 µM
COc1cccc(F)c1O[C@H]1C[C@@H]2CN(CC(=O)c3ccc(O)cn3)C[C@@H]2C1	10 µM	> 10 µM
N#Cc1ccc(O[C@@H]2C[C@@H]3CN(CC(O)c4ccc(O)cn4)C[C@@H]3C2)cc1 (some centres unmarked)	10 µM	> 10 µM
OC(CN1C[C@H]2C[C@H](Oc3ccc(F)cc3)C[C@H]2C1)c1cn[nH]c1 (some centres unmarked) [drawing 256]	4.89 µM	1 to 10 µM
N#Cc1ccc(O[C@H]2C[C@@H]3CN(CC(=O)c4ccc(O)c(F)n4)C[C@@H]3C2)cc1	10 µM	> 10 µM
COC(CN1C[C@H]2C[C@H](Oc3ccc(F)cc3)C[C@H]2C1)c1ccc(OCc2ccccc2)cc1 (some centres unmarked)	10 µM	> 10 µM
Oc1ccc(C(O)CN2C[C@H]3C[C@H](Oc4cnccn4)C[C@H]3C2)cc1 (some centres unmarked)	0.243 µM	0.1 to 1 µM
Oc1ccc(C(O)CN2C[C@H]3C[C@H](Oc4c(F)cccc4F)C[C@H]3C2)cc1 (some centres unmarked)	0.0263 µM	< 0.1 µM
COc1ccc(O[C@@H]2C[C@@H]3CN(CC(=O)c4ccc(O)cc4)C[C@@H]3C2)cc1	0.0573 µM	< 0.1 µM
COc1cccc(F)c1O[C@H]1C[C@@H]2CN(CC(=O)c3ccc(O)cc3)C[C@@H]2C1	0.466 µM	0.1 to 1 µM
Oc1ccc([C@H](O)CN2C[C@H]3C[C@H](Oc4ccccc4)C[C@H]3C2)nc1	0.00524 µM	< 0.1 µM
Cc1ccc(O[C@H]2C[C@@H]3CN(CC(=O)c4ccc(O)c(F)c4)C[C@@H]3C2)cn1	2.37 µM	1 to 10 µM
Cc1ccc(O[C@H]2C[C@@H]3CN(CC(O)c4ccc(O)cn4)C[C@@H]3C2)c(F)n1 (some centres unmarked)	0.0602 µM	< 0.1 µM
Oc1ccc(C(O)CN2C[C@H]3C[C@H](Oc4cc(F)cc(F)c4)C[C@H]3C2)nc1 (some centres unmarked)	0.0583 µM	< 0.1 µM
COc1ccc(O[C@H]2C[C@@H]3CN(CC(O)c4ccc(O)c(OC)n4)C[C@@H]3C2)cc1 (some centres unmarked)	1.33 µM	1 to 10 µM
Oc1ccc(C(O)CN2C[C@H]3C[C@H](Sc4ccccc4F)C[C@H]3C2)nc1 (some centres unmarked)	0.0206 µM	< 0.1 µM
Oc1ccc(C(O)CN2C[C@H]3C[C@H](Oc4cccc5cnccc45)C[C@H]3C2)cc1 (some centres unmarked)	0.191 µM	0.1 to 1 µM
N#Cc1ccc(O[C@H]2C[C@@H]3CN(CC(=O)c4ccc(O)cn4)C[C@@H]3C2)cc1	10 µM	> 10 µM
Oc1ccc([C@@H](O)CN2C[C@H]3C[C@H](Oc4cccnc4F)C[C@H]3C2)nc1	0.02 µM	< 0.1 µM
Oc1ccc(C(O)CN2C[C@H]3C[C@H](Oc4cccnc4F)C[C@H]3C2)cc1F (some centres unmarked)	0.0217 µM	< 0.1 µM
Cc1cccc(O[C@H]2C[C@@H]3CN(CC(O)c4ccc(O)cc4)C[C@@H]3C2)c1F (some centres unmarked)	0.0726 µM	< 0.1 µM
COc1ccc(O[C@@H]2C[C@@H]3CN(CC(=O)c4ccc(O)cn4)C[C@@H]3C2)cc1	7.1 µM	1 to 10 µM
Oc1ccc(C(O)CN2C[C@H]3C[C@H](Oc4cncc(F)c4)C[C@H]3C2)cc1 (some centres unmarked)	0.267 µM	0.1 to 1 µM
Oc1ccc([C@@H](O)CN2C[C@H]3C[C@H](Oc4ccccc4)C[C@H]3C2)nc1	0.00525 µM	< 0.1 µM
Oc1ccc(C(O)CN2C[C@H]3C[C@@H](Oc4ccc(F)cc4)C[C@H]3C2)cc1F (some centres unmarked)	0.0305 µM	< 0.1 µM
O=C(CN1C[C@H]2C[C@H](Oc3ccccc3)C[C@H]2C1)c1ccc(O)cc1	0.0107 µM	< 0.1 µM
Oc1ccc(C(O)CN2C[C@H]3C[C@H](Oc4cncc(Cl)c4)C[C@H]3C2)cc1 (some centres unmarked)	0.493 µM	0.1 to 1 µM
Oc1ccc(C(O)CN2C[C@H]3C[C@@H](Oc4cccnc4)C[C@H]3C2)cc1 (some centres unmarked)	8 µM	1 to 10 µM

Compound	IC50 [1]	IC50 [2]
Oc1ccc(C(O)CN2C[C@H]3C[C@H](Oc4ccc(F)c(F)c4)C[C@H]3C2)cc1 (some centres unmarked)	0.014 µM	< 0.1 µM
COc1ccc(O[C@H]2C[C@@H]3CN(CC(=O)c4ccc(O)c(F)n4)C[C@@H]3C2)cc1	10 µM	> 10 µM
Oc1ccc(C(O)CN2C[C@H]3C[C@H](Oc4cccnc4)C[C@H]3C2)cc1 (some centres unmarked)	0.0946 µM	< 0.1 µM
COc1ccc(O[C@H]2C[C@@H]3CN(CC(O)c4ccc(O)c(F)c4)C[C@@H]3C2)cc1 (some centres unmarked)	0.0415 µM	< 0.1 µM
O=C(CN1C[C@H]2CC(S(=O)(=O)c3ccccc3)C[C@H]2C1)c1ccc(O)cc1 (some centres unmarked)	3.5 µM	1 to 10 µM
N#Cc1ccc(O[C@H]2C[C@@H]3CN(CC(=O)c4ccc(O)cc4)C[C@@H]3C2)cc1	0.0682 µM	< 0.1 µM
Oc1ccc(C(O)CN2C[C@H]3C[C@H](Oc4ccccc4)C[C@H]3C2)nc1 (some centres unmarked)	0.00572 µM	< 0.1 µM
O=C(CN1C[C@H]2C[C@@H](Oc3ccc(F)c(F)c3)C[C@H]2C1)c1ccc(O)cc1	0.0686 µM	< 0.1 µM
COc1ccc(F)c(O[C@H]2C[C@@H]3CN(CC(O)c4ccc(O)cc4)C[C@@H]3C2)c1 (some centres unmarked)	0.569 µM	0.1 to 1 µM
COc1ccc(O[C@H]2C[C@@H]3CN(CC(=O)c4ccc(O)cc4)C[C@@H]3C2)cc1	0.0464 µM	< 0.1 µM
COc1ccc(F)c(O[C@H]2C[C@@H]3CN(CC(=O)c4ccc(O)cn4)C[C@@H]3C2)c1	10 µM	> 10 µM
COc1cccc(O[C@H]2C[C@@H]3CN(CC(=O)c4ccc(O)cn4)C[C@@H]3C2)c1	10 µM	> 10 µM
Cc1ccc(O[C@H]2C[C@@H]3CN(CC(=O)c4ccc(O)cc4)C[C@@H]3C2)cn1	0.0845 µM	< 0.1 µM
COc1ccc(O[C@@H]2C[C@@H]3CN(CC(=O)c4ccc(O)c(F)c4)C[C@@H]3C2)cc1	0.25 µM	0.1 to 1 µM
O=C(CN1C[C@H]2C[C@H](Oc3cccc(F)c3F)C[C@H]2C1)c1ccc(O)cn1	0.308 µM	0.1 to 1 µM
O=C(CN1C[C@H]2C[C@H](Oc3ccc(F)nc3)C[C@H]2C1)c1ccc(O)cc1	0.0552 µM	< 0.1 µM
Oc1ccc(C(O)CN2C[C@H]3C[C@H](Oc4ccc(F)cc4)C[C@H]3C2)cc1 (some centres unmarked)	0.013 µM	< 0.1 µM
Oc1ccc(C(O)CN2C[C@H]3C[C@@H](Oc4ccc(F)c(F)c4)C[C@H]3C2)nc1 (some centres unmarked)	0.0376 µM	< 0.1 µM
O=C(CN1C[C@H]2C[C@H](Oc3cncc(Cl)c3)C[C@H]2C1)c1ccc(O)cc1	0.253 µM	0.1 to 1 µM
Cc1cccc(O[C@H]2C[C@@H]3CN(CC(=O)c4ccc(O)cc4)C[C@@H]3C2)c1F	0.177 µM	0.1 to 1 µM
Cc1cccc(O[C@H]2C[C@@H]3CN(CC(=O)c4ccc(O)cn4)C[C@@H]3C2)c1F	0.435 µM	0.1 to 1 µM
Oc1ccc(C(O)CN2C[C@H]3C[C@H](Sc4ccc(F)cc4)C[C@H]3C2)cc1 (some centres unmarked)	0.0192 µM	< 0.1 µM
COc1ccc(S[C@H]2C[C@@H]3CN(CC(=O)c4ccc(O)cc4)C[C@@H]3C2)cc1	0.23 µM	0.1 to 1 µM
COc1cccc(O[C@H]2C[C@@H]3CN(CC(=O)c4ccc(O)cc4)C[C@@H]3C2)c1F	0.117 µM	0.1 to 1 µM
COc1ccc(O[C@H]2C[C@@H]3CN(CC(=O)c4ccc(O)cn4)C[C@@H]3C2)cc1	10 µM	> 10 µM
O=C(CN1C[C@H]2C[C@H](Oc3cccc4cnccc34)C[C@H]2C1)c1ccc(O)cc1	0.409 µM	0.1 to 1 µM
O=C(CN1C[C@H]2C[C@H](Oc3ccc(F)cc3)C[C@H]2C1)c1cnn(Cc2ccccc2)c1	10 µM	> 10 µM
